Test results published in the supplement of paper PMC11208160.

Assay: recombinant barcode read abundance after kanamycin selection (control-corrected) (log10(CPM+1)); higher = more efficient recombination; sequences stand for … in AGTGCAGAGAAAATCGGCCAGTTTTCTCTGCCTGCAGTCCGCATGCCGT…AGATTTATGCAGCGGACTGCCTTTCTCCCAAAGTGATAAACCGGACAGTATCATGGACCGGTTTTCCCGGTAATCCGTATTTGCAAGGTTGGTTTCACT; site = the 11-nt target
Method in brief: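 For this pooled screen, each oligo contained a promoter, a target, a barcode and the J23119-driven first 104 bases of the bridge RNA. Gibson cloning placed it into a vector supplying the remaining 73 bp and a T7-inducible recombinase, and the pool was co-electroporated into E. coli with a donor plasmid. Recombination efficiency is derived from barcode counts per million at recombinant junctions after averaging and control correction, and is expressed on a log scale as log10(CPM+1), with selection on chloramphenicol/ampicillin/kanamycin plus 0.1 mM IPTG against a chloramphenicol/ampicillin LB agar control.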
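Further: IS621 recombinase and bridge RNA in Escherichia coli cells.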

Sequence | recombinant barcode read abundance (log10)
TGCGTTCCTTGGGTTCTAACCTGTTGCGT (site TGCGTTCCTAC) | 0.88
TGCTAGGCTTGGGTTCTAACCTGTTGCCT (site TGCTAGGCTAG) | 0.0609
TGCTAGGCTTGGGTTCTAACCTGTTGCCT (site TGTCAGGCTAG) | 0.0576
TGCTCGGCTTGGGTTCTAACCTGTTGCCT (site AGCTCCGCTAG) | 0
TGCTCGGCTTGGGTTCTAACCTGTTGCCT (site TGCTCGGCTAG) | 0.0603
TGCTCTACTTGGGTTCTAACCTGTTGCTT (site TGATCTACTAA) | 0.122
TGCTCTACTTGGGTTCTAACCTGTTGCTT (site TGCTCTACTAA) | 0.0286
TGCTCTACTTGGGTTCTAACCTGTTGCTT (site TGGTCTACTAA) | 0.0891
TGCTCTACTTGGGTTCTAACCTGTTGCTT (site TGTTCTACTAA) | 0.00634
TGCTGTGCTTGGGTTCTAACCTGTTGCCT (site TGCTGTACTAG) | 0.0329
TGCTGTGCTTGGGTTCTAACCTGTTGCCT (site TGCTGTCCTAG) | 0.179
TGCTGTGCTTGGGTTCTAACCTGTTGCCT (site TGCTGTGCTAG) | 0.29
TGCTGTGCTTGGGTTCTAACCTGTTGCCT (site TGCTGTTCTAG) | 0.279
TGGAACACTTGGGTTCTAACCTGTTGCCT (site TGGAACACTAG) | 0.98
TGGAACACTTGGGTTCTAACCTGTTGCCT (site TGGACCACTAG) | 0.0483
TGGAACACTTGGGTTCTAACCTGTTGCCT (site TGGAGCACTAG) | 0.0596
TGGAACACTTGGGTTCTAACCTGTTGCCT (site TGGATCACTAG) | 0.119
TGGACCTCTTGGGTTCTAACCTGTTGCCA (site CTACGAACTCC) | 0.626

Sequence | recombinant barcode read abundance (log10)
TGGACCTCTTGGGTTCTAACCTGTTGCCA (site TGGACCTCTTG) | 0.222
TGGACGTCTTGGGTTCTAACCTGTTGCCT (site TGGACGCCTAG) | 0.125
TGGACGTCTTGGGTTCTAACCTGTTGCCT (site TGGACGTCTAG) | 0.865
TGGACTTCTTGGGTTCTAACCTGTTGCTC (site TGGACTTCTCA) | 0.24
TGGACTTCTTGGGTTCTAACCTGTTGCTC (site TGGACTTCTGA) | 0.141
TGGCAGACTTGGGTTCTAACCTGTTGCCT (site TGGCAGACTAG) | 0.215
TGGCAGACTTGGGTTCTAACCTGTTGCCT (site TGGCAGCCTAG) | 0.263
TGGCAGACTTGGGTTCTAACCTGTTGCCT (site TGGCAGGCTAG) | 0.0442
TGGCAGACTTGGGTTCTAACCTGTTGCCT (site TGGCAGTCTAG) | 0.232
TGGCAGCCTTGGGTTCTAACCTGTTGCCT (site TGGCAGACTAG) | 0.0766
TGGCAGCCTTGGGTTCTAACCTGTTGCCT (site TGGCAGCCTAG) | 0.216
TGGCAGCCTTGGGTTCTAACCTGTTGCCT (site TGGCAGGCTAG) | 0.231
TGGCAGCCTTGGGTTCTAACCTGTTGCCT (site TGGCAGTCTAG) | 0.0934
TGGCGTGCTTGGGTTCTAACCTGTTGCCT (site TGGCGTGCTAG) | 0.382
TGGCGTGCTTGGGTTCTAACCTGTTGCCT (site TGTTGTGCTAG) | 0.118
TGGCTGTCTTGGGTTCTAACCTGTTGCCT (site TGGCTGTCTAG) | 1.2
TGGCTGTCTTGGGTTCTAACCTGTTGCCT (site TGGTTGTCTAG) | 0.0561
TGGTACCCTTGGGTTCTAACCTGTTGCTA (site GTTACTACTCG) | 0.0129
